In patent publication US10336792B2, “Antimicrobial peptide dendrimers” (priority 2014, dated 2019):
≈ marks a conversion by molar mass, not a printed value. Positions of bridges follow the written chain, without caps; N, C: chain ends. Non-standard residues stand in square brackets, D forms with d. Residues, ends and D or L forms follow the SMILES beside them. Groups on a side chain read outwards from the residue. Chains are numbered I, II in the order given. *: point of attachment. Stearoyl = CCCCCCCCCCCCCCCCCC(=O)*; Dab = NCC[C@H](N)C(=O)O; Hexanoyl = CCCCCC(=O)*

Assays:
Format in all cases: cell-based
[1] = test system: Bacillus subtilis (strain BR151); settings: strain BR151
Outline: (§1)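 Broth microdilution MIC in LB; overnight cultures diluted to OD600 0.001 and mixed 1:1 with ⅔-serially diluted samples (stock 1 mg mL^−1 in H2O), 37° C for 18-24 h. MTT (0.1%) added; MIC read by eye as lowest concentration inhibiting visible growth (yellow).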

[2] = test system: Escherichia coli (strain DH5α); settings: DH5α
Outline: as §1

[3] = test system: Pseudomonas aeruginosa (strain PA01); assay: microbe, parasite or virus in culture; settings: strain
Outline: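 Broth microdilution MIC against P. aeruginosa PAO1 in LB: peptides serially diluted by ⅔, bacteria added at OD600 0.001 and incubated 18–24 h at 37 °C. MTT added; MIC is the lowest concentration preventing visible growth.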

| Compound | MIC B. subtilis BR151 [1] [µg/mL] | MIC E. coli DH5α [2] [µg/mL] | MIC P. aeruginosa PAO1 [3] [µg/mL] |
| --- | --- | --- | --- |
| CCCCCC(=O)NCCCC[C@H](NC(=O)[C@H](CC(C)C)NC(=O)[C@H](CCCCN)NC(=O)[C@H](CCCCNC(=O)[C@H](CC(C)C)NC(=O)[C@H](CCCCN)NC(=O)[C@H](CCCCNC(=O)[C@H](CC(C)C)NC(=O)[C@@H](N)CCCCN)NC(=O)[C@H](CC(C)C)NC(=O)[C@@H](N)CCCCN)NC(=O)[C@H](CC(C)C)NC(=O)[C@H](CCCCN)NC(=O)[C@H](CCCCNC(=O)[C@H](CC(C)C)NC(=O)[C@@H](N)CCCCN)NC(=O)[C@H](CC(C)C)NC(=O)[C@@H](N)CCCCN)C(N)=O [MSt-260, (KL)4(KKL)2(KKLKC6)] (I: H-KLK([Leu-Lys])KLKKLK(Hexanoyl)-NH2 / II: H-KLK([Leu-Lys])KL; amide I:6-II:C) | 20 (≈ 8.63 µM) | 2 (≈ 0.863 µM) | 1 (≈ 0.432 µM) |
| CC(C)C[C@@H](NC(=O)[C@@H](CCCNC(=N)N)NC(=O)[C@@H](CCCCNC(=O)[C@@H](CC(C)C)NC(=O)[C@@H](CCCNC(=N)N)NC(=O)[C@@H](CCCCNC(=O)[C@@H](CC(C)C)NC(=O)[C@@H](CCCNC(=N)N)NC(=O)[C@@H](CCCCNC(=O)[C@@H](CC(C)C)NC(=O)[C@H](N)CCCNC(=N)N)NC(=O)[C@@H](CC(C)C)NC(=O)[C@H](N)CCCNC(=N)N)NC(=O)[C@@H](CC(C)C)NC(=O)[C@@H](CCCNC(=N)N)NC(=O)[C@@H](CCCCNC(=O)[C@@H](CC(C)C)NC(=O)[C@H](N)CCCNC(=N)N)NC(=O)[C@@H](CC(C)C)NC(=O)[C@H](N)CCCNC(=N)N)NC(=O)[C@@H](CC(C)C)NC(=O)[C@@H](CCCNC(=N)N)NC(=O)[C@@H](CCCCNC(=O)[C@@H](CC(C)C)NC(=O)[C@@H](CCCNC(=N)N)NC(=O)[C@@H](CCCCNC(=O)[C@@H](CC(C)C)NC(=O)[C@H](N)CCCNC(=N)N)NC(=O)[C@@H](CC(C)C)NC(=O)[C@H](N)CCCNC(=N)N)NC(=O)[C@@H](CC(C)C)NC(=O)[C@@H](CCCNC(=N)N)NC(=O)[C@@H](CCCCNC(=O)[C@@H](CC(C)C)NC(=O)[C@H](N)CCCNC(=N)N)NC(=O)[C@@H](CC(C)C)NC(=O)[C@H](N)CCCNC(=N)N)C(N)=O [MSt-155, (rl)8(krl)4(krl)2(krl)] (I: H-[dR][dL][dK]([dL-dR])[dR][dL][dK][dR][dL][dK][dR][dL]-NH2 / II: H-[dR][dL][dK]([dL-dR])[dR][dL][dK][dR][dL] / III: H-[dR][dL][dK]([dL-dR])[dR][dL] / IV: H-[dR][dL][dK]([dL-dR])[dR][dL]; amide I:6-IV:C, I:9-II:C, II:6-III:C) | 6 (≈ 1.21 µM) | 4 (≈ 0.807 µM) | 11 (≈ 2.22 µM) |
| CC(C)C[C@H](NC(=O)[C@@H](N)CCN)C(=O)NCCCC[C@H](NC(=O)[C@H](CC(C)C)NC(=O)[C@@H](N)CCN)C(=O)N[C@@H](CCN)C(=O)N[C@@H](C)C(=O)NCCCC[C@H](NC(=O)[C@H](C)NC(=O)[C@H](CCN)NC(=O)[C@H](CCCCNC(=O)[C@H](CC(C)C)NC(=O)[C@@H](N)CCN)NC(=O)[C@H](CC(C)C)NC(=O)[C@@H](N)CCN)C(=O)N[C@@H](CCN)C(=O)N[C@@H](Cc1c[nH]c2ccccc12)C(=O)NCCCC[C@H](NC(=O)[C@H](Cc1c[nH]c2ccccc12)NC(=O)[C@H](CCN)NC(=O)[C@H](CCCCNC(=O)[C@H](C)NC(=O)[C@H](CCN)NC(=O)[C@H](CCCCNC(=O)[C@H](CC(C)C)NC(=O)[C@@H](N)CCN)NC(=O)[C@H](CC(C)C)NC(=O)[C@@H](N)CCN)NC(=O)[C@H](C)NC(=O)[C@H](CCN)NC(=O)[C@H](CCCCNC(=O)[C@H](CC(C)C)NC(=O)[C@@H](N)CCN)NC(=O)[C@H](CC(C)C)NC(=O)[C@@H](N)CCN)C(=O)N[C@@H](CCN)C(=O)N[C@@H](Cc1c[nH]c2ccccc12)C(N)=O [MSt-207, (DabL)8(KDabA)4(KDabW)2(KDabW)] (I: H-[Dab]LK([Leu-Dab])[Dab]AK[Dab]WK[Dab]W-NH2 / II: H-[Dab]LK([Leu-Dab])[Dab]AK[Dab]W / III: H-[Dab]LK([Leu-Dab])[Dab]A / IV: H-[Dab]LK([Leu-Dab])[Dab]A; amide I:6-IV:C, I:9-II:C, II:6-III:C; N-terminus assumed) | 7 (≈ 1.68 µM) | 21 (≈ 5.04 µM) | 8 (≈ 1.92 µM) |
| CC(C)C[C@H](NC(=O)[C@@H](N)CCN)C(=O)NCCCC[C@H](NC(=O)[C@H](CC(C)C)NC(=O)[C@@H](N)CCN)C(=O)N[C@@H](CCN)C(=O)N[C@@H](Cc1c[nH]c2ccccc12)C(=O)NCCCC[C@H](NC(=O)[C@H](Cc1c[nH]c2ccccc12)NC(=O)[C@H](CCN)NC(=O)[C@H](CCCCNC(=O)[C@H](CC(C)C)NC(=O)[C@@H](N)CCN)NC(=O)[C@H](CC(C)C)NC(=O)[C@@H](N)CCN)C(=O)N[C@@H](CCN)C(=O)N[C@@H](C)C(=O)NCCCC[C@H](NC(=O)[C@H](C)NC(=O)[C@H](CCN)NC(=O)[C@H](CCCCNC(=O)[C@H](Cc1c[nH]c2ccccc12)NC(=O)[C@H](CCN)NC(=O)[C@H](CCCCNC(=O)[C@H](CC(C)C)NC(=O)[C@@H](N)CCN)NC(=O)[C@H](CC(C)C)NC(=O)[C@@H](N)CCN)NC(=O)[C@H](Cc1c[nH]c2ccccc12)NC(=O)[C@H](CCN)NC(=O)[C@H](CCCCNC(=O)[C@H](CC(C)C)NC(=O)[C@@H](N)CCN)NC(=O)[C@H](CC(C)C)NC(=O)[C@@H](N)CCN)C(=O)N[C@@H](CCN)C(=O)N[C@@H](Cc1c[nH]c2ccccc12)C(N)=O [MSt-206, (DabL)8(KDabW)4(KDabA)2(KDabW)] (I: H-[Dab]LK([Leu-Dab])[Dab]WK[Dab]AK[Dab]W-NH2 / II: H-[Dab]LK([Leu-Dab])[Dab]WK[Dab]A / III: H-[Dab]LK([Leu-Dab])[Dab]W / IV: H-[Dab]LK([Leu-Dab])[Dab]W; amide I:6-IV:C, I:9-II:C, II:6-III:C; N-terminus assumed) | 2 (≈ 0.455 µM) | 2 (≈ 0.455 µM) | 3 (≈ 0.683 µM) |
| CCCCCCCCCCCCCCCCCC(=O)NCCCC[C@H](NC(=O)[C@H](CC(C)C)NC(=O)[C@H](CCCCN)NC(=O)[C@H](CCCCNC(=O)[C@H](CC(C)C)NC(=O)[C@H](CCCCN)NC(=O)[C@H](CCCCNC(=O)[C@H](CC(C)C)NC(=O)[C@@H](N)CCCCN)NC(=O)[C@H](CC(C)C)NC(=O)[C@@H](N)CCCCN)NC(=O)[C@H](CC(C)C)NC(=O)[C@H](CCCCN)NC(=O)[C@H](CCCCNC(=O)[C@H](CC(C)C)NC(=O)[C@@H](N)CCCCN)NC(=O)[C@H](CC(C)C)NC(=O)[C@@H](N)CCCCN)C(N)=O [MSt-286, (KL)4(KKL)2(KKLKC18)] (I: H-KLK([Leu-Lys])KLKKLK(Stearoyl)-NH2 / II: H-KLK([Leu-Lys])KL; amide I:6-II:C; N-terminus assumed) | 4 (≈ 1.61 µM) | 3 (≈ 1.21 µM) | 4 (≈ 1.61 µM) |
